In ChEMBL document CHEMBL3588743, “Cell-based and virtual fragment screening for adrenergic α2C receptor agonists” (Bioorg Med Chem, 2015):
pEC50, pKi: −log10 of the molar value.

Key:
[1] = molecular target: T1, Alpha-2C adrenergic receptor (Homo sapiens) (UniProt P18825); assay: (§1) Displacement of [3H]-UK14304 from recombinant human alpha2c adrenergic receptor expressed in CHOK1 cell membranes after 30 mins by scintillation counting analysis; conditions: CHO-K1
T1 sequence (whole entry): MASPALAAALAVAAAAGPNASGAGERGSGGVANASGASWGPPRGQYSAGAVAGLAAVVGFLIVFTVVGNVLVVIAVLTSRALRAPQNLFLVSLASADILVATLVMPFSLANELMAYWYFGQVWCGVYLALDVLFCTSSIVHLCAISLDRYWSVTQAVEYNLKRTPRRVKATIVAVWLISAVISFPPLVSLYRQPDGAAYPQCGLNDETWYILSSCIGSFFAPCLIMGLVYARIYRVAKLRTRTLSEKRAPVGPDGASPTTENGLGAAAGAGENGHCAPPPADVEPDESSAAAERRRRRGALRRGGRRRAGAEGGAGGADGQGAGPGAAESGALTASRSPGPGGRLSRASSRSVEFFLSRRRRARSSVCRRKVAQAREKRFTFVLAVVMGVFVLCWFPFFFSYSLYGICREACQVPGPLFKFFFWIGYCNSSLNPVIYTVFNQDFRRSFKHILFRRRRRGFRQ

[2] = molecular target: T2, Alpha-2C adrenergic receptor (Homo sapiens, UniProt P18825); assay: as §1; design: species or system CHO-K1
T2 sequence (P18825 whole entry): T1 sequence (whole entry)

[3] = molecular target: T2, Alpha-2C adrenergic receptor; assay: Agonist activity at recombinant human alpha2c adrenergic receptor expressed in CHOK1 cells co-expressing Gqi5 assessed as induction of cytoplasmic calcium mobilization measured for 40 secs by fluorometric analysis; format: functional, cell-based, CHO-K1
[4] = molecular target: T1, Alpha-2C adrenergic receptor (Homo sapiens); assay: Agonist activity at recombinant human alpha2c adrenergic receptor expressed in CHOK1 cells co-expressing Gqi5 assessed as induction of cytoplasmic calcium mobilization measured for 40 secs by fluorometric analysis relative to UK14304; format: functional, cell-based; conditions: CHO-K1
[5] = molecular target: Somatostatin receptor type 4 (Homo sapiens) (UniProt P31391); assay: Agonist activity at recombinant human sst4 receptor expressed in CHOK1 cells co-expressing Galpha16 assessed as induction of cytoplasmic calcium mobilization at 250 uM measured for 40 secs by fluorometric analysis relative to L-803087; format: functional, cell-based; conditions: CHO-K1
Sequence of Somatostatin receptor type 4 (Homo sapiens) (P31391 whole entry): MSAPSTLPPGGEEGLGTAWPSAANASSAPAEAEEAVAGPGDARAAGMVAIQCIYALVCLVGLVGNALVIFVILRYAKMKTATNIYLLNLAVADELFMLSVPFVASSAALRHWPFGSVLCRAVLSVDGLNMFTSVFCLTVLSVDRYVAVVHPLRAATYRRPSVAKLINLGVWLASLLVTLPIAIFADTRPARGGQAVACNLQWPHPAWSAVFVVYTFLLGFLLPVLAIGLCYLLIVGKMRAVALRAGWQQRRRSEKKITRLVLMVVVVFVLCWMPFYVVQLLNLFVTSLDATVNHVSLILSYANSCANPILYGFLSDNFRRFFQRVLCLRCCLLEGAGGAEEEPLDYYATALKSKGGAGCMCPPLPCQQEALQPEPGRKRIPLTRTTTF

SMILES	Emax [1] [%]	pKi [2]	pEC50 [3]	Emax [4] [%]	Activity [5] [%]
O=C(CCC1CCCC1)N1CCSC12CCNCC2	81	4.81	< 3.30	> 82	–
Brc1cccc(Cn2ccnc2)c1	97	5.93	< 3.30	> 105	–
CN1CCN(c2ccc(N)cc2)CC1	100	5.82	< 3.30	> 36	< 10
OC(Cn1ccnc1)c1ccc(Cl)cc1Cl (configuration not stated)	78	4.82	3.47	123	–
c1ccc(-c2nc(CNCc3cccnc3)c[nH]2)cc1	102	5.28	3.32	87	–
c1cncc(-c2ccccc2NCc2ccncc2)c1	98	5.97	5.46	56	–
Cc1ccccc1NCc1cnc[nH]1	100	7.14	6.76	60	–
COc1ccccc1OCC1CNCCO1 (configuration not stated)	81	4.98	< 3.30	> 77	–
CCNCC(=O)N1CCn2cccc2C1c1cccc(Cl)c1 (configuration not stated)	99	5.14	< 3.30	> 88	–
NCCSc1nc2ccccc2o1	92	6.19	5.50	49	–
Oc1cc2c(cc1O)C(c1ccccc1)CNCC2 (configuration not stated) [SKF-38393]	92	7.08	5.86	70	–
COc1ccc(C2NCCCn3cccc32)cc1 (configuration not stated)	–	4.86	–	–	–
CN1CCN(c2ccccc2N)CC1	–	6.62	–	–	–
Cc1ccccc1NCc1ccncc1	92	6.27	< 3.30	> 66	–
NCCCN(C(=O)c1ccccc1)c1ccccc1	104	5.08	< 3.30	> 51	–
Cc1ccccc1Cn1ccnc1CNC(C)C	102	4.65	3.83	55	–
NCC(=O)Nc1ccccc1Oc1ccccc1	81	4.81	3.20	93	–
c1ccc2c(CC3=NCCN3)cccc2c1 [NAPHAZOLINE]	102	8.64	7.26	55	–
CN1CCN(c2cccc(N)c2)CC1	–	6.25	–	–	–
N#Cc1cccc(-c2ccccc2CCN)c1	100	7.93	< 3.30	> 75	–
